Test results from US8901118B2, “Compounds and methods for kinase modulation, and indications therefor” (Plexxikon Inc., priority 2010, dated 2014).
pIC50: −log10 of the molar value.

Target: CYP3A4(BQ) (Homo sapiens, UniProt P08684)
Assay: CYP3A4(BQ) inhibition
Type: in vitro ADME
Details: CYP3A4, substrate BQ; read-out: Cyp IC50 3A4(BQ)
Summary of the method: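 Inhibition of human CYP3A4 (BQ substrate) was measured by fluorescence, since blocking metabolism of a known substrate lowers the fluorescent product signal. Compounds dissolved in DMSO at 100 mM were diluted into acetonitrile and then into NADPH regeneration cofactor mix, serially diluted 1:1 across 10 points, and preincubated in 384 well plates for 10 minutes at 37° C.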

Chain of CYP3A4(BQ) (P08684 whole entry): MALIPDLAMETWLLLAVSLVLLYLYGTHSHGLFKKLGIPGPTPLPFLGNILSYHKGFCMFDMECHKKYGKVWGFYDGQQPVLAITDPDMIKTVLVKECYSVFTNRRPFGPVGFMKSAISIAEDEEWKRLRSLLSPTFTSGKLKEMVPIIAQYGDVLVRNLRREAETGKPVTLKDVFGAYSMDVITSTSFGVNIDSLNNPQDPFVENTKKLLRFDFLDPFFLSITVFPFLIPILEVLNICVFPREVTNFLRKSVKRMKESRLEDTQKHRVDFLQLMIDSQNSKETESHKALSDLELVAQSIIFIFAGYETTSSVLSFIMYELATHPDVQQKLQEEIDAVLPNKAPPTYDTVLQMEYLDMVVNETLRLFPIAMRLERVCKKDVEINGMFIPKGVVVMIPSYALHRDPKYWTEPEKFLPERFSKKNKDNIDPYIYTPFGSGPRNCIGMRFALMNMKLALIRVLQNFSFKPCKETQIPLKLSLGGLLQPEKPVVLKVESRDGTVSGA

## Clc1cnc2[nH]cc(Cc3cnc(NC4CCCCC4)nc3)c2c1 [Compound P-3001, [5-(5-chloro-1H-pyrrolo[2,3-b]pyridin-3-ylmethyl)-pyrimidin-2-yl]-cyclohexyl-amine]
  pIC50: < 5.00

## COc1ccc(Nc2ccc(C(=O)c3c[nH]c4ncc(C)cc34)c(F)n2)cn1 [Compound P-3040, [2-Fluoro-6-(6-methoxy-pyridin-3-ylamino)-pyridin-3-yl]-(5-methyl-1H-pyrrolo[2,3-b]pyridin-3-yl)-methanone]
  pIC50: < 5.00

## Cc1cnc2[nH]cc(Cc3ccc(Nc4ccc(C)nc4)nc3F)c2c1 [Compound P-3041, [6-Fluoro-5-(5-methyl-1H-pyrrolo[2,3-b]pyridin-3-ylmethyl)-pyridin-2-yl]-(6-methyl-pyridin-3-yl)-amine]
  pIC50: < 5.00

## Cc1cnc2[nH]cc(C(=O)c3ccc(Nc4ccc(C)nc4)nc3F)c2c1 [Compound P-3043, [2-Fluoro-6-(6-methyl-pyridin-3-ylamino)-pyridin-3-yl]-(5-methyl-1H-pyrrolo[2,3-b]pyridin-3-yl)-methanone]
  pIC50: < 5.00

## Cc1ccc(Nc2ccc(C(=O)c3c[nH]c4ncc(Cl)cc34)c(F)n2)cn1 [Compound P-3044, (5-Chloro-1H-pyrrolo[2,3-b]pyridin-3-yl)-[2-fluoro-6-(6-methyl-pyridin-3-ylamino)-pyridin-3-yl]-methanone]
  pIC50: < 5.00

## CCc1ccc(Nc2ccc(Cc3c[nH]c4ncc(C)cc34)c(F)n2)cn1 [Compound P-3048, (6-Ethyl-pyridin-3-yl)-[6-fluoro-5-(5-methyl-1H-pyrrolo[2,3-b]pyridin-3-ylmethyl)-pyridin-2-yl]-amine]
  pIC50: < 5.00

## CCc1ccc(Nc2ccc(C(=O)c3c[nH]c4ncc(C)cc34)c(F)n2)cn1 [Compound P-3049, [6-(6-Ethyl-pyridin-3-ylamino)-2-fluoro-pyridin-3-yl]-(5-methyl-1H-pyrrolo[2,3-b]pyridin-3-yl)-methanone]
  pIC50: < 5.00

## Cc1cnc2[nH]cc(Cc3ccc(Nc4ccc(C5CC5)nc4)nc3F)c2c1 [Compound P-3050, (6-Cyclopropyl-pyridin-3-yl)-[6-fluoro-5-(5-methyl-1H-pyrrolo[2,3-b]pyridin-3-ylmethyl)-pyridin-2-yl]-amine]
  pIC50: < 5.00

## Cc1cnc2[nH]cc(C(=O)c3ccc(Nc4ccc(C5CC5)nc4)nc3F)c2c1 [Compound P-3051, [6-(6-Cyclopropyl-pyridin-3-ylamino)-2-fluoro-pyridin-3-yl]-(5-methyl-1H-pyrrolo[2,3-b]pyridin-3-yl)-methanone]
  pIC50: < 5.00

## O=C(c1ccc(Nc2ccc(C3CC3)nc2)nc1F)c1c[nH]c2ncccc12 [Compound P-3052, [6-(6-Cyclopropyl-pyridin-3-ylamino)-2-fluoro-pyridin-3-yl]-(1H-pyrrolo[2,3-b]pyridin-3-yl)-methanone]
  pIC50: < 5.00

## Fc1nc(Nc2ccc(C3CC3)nc2)ccc1Cc1c[nH]c2ncccc12 [Compound P-3053, (6-Cyclopropyl-pyridin-3-yl)-[6-fluoro-5-(1H-pyrrolo[2,3-b]pyridin-3-ylmethyl)-pyridin-2-yl]-amine]
  pIC50: < 5.00

## COc1ccc(Nc2ccc(Cc3c[nH]c4ncnc(C)c34)c(F)n2)cn1 [Compound P-4002, [6-Fluoro-5-(4-methyl-7H-pyrrolo[2,3-d]pyrimidin-5-ylmethyl)-pyridin-2-yl]-(6-methoxy-pyridin-3-yl)-amine]
  pIC50: < 5.00

## COc1ccc(Nc2ccc(C(=O)c3c[nH]c4ncnc(C5CC5)c34)c(F)n2)cn1 [Compound P-4022, (4-cyclopropyl-7H-pyrrolo[2,3-d]pyrimidin-5-yl)-[2-fluoro-6-(6-methoxy-pyridin-3-ylamino)-pyridin-3-yl]-methanone]
  pIC50: < 5.00

## COc1ccc(Nc2ccc(Cc3c[nH]c4ncnc(C5CC5)c34)c(F)n2)cn1 [Compound P-4023, [5-(4-cyclopropyl-7H-pyrrolo[2,3-d]pyrimidin-5-ylmethyl)-6-fluoro-pyridin-2-yl]-(6-methoxy-pyridin-3-yl)-amine]
  pIC50: < 5.00

## CCOc1ccc(Nc2ccc(C(=O)c3c[nH]c4ncnc(OC)c34)c(F)n2)cn1 [Compound P-4024, [6-(6-Ethoxy-pyridin-3-ylamino)-2-fluoro-pyridin-3-yl]-(4-methoxy-7H-pyrrolo[2,3-d]pyrimidin-5-yl)-methanone]
  pIC50: < 5.00

## CCOc1ncnc2[nH]cc(C(=O)c3ccc(Nc4ccc(OC)nc4)nc3F)c12 [Compound P-4025, (4-Ethoxy-7H-pyrrolo[2,3-d]pyrimidin-5-yl)-[2-fluoro-6-(6-methoxy-pyridin-3-ylamino)-pyridin-3-yl]-methanone]
  pIC50: < 5.00

## CCc1ccc(Nc2ccc(Cc3c[nH]c4ncnc(C5CC5)c34)c(F)n2)cn1 [Compound P-4028, [5-(4-Cyclopropyl-7H-pyrrolo[2,3-d]pyrimidin-5-ylmethyl)-6-fluoro-pyridin-2-yl]-(6-ethyl-pyridin-3-yl)-amine]
  pIC50: < 5.00

## CCc1ccc(Nc2ccc(C(=O)c3c[nH]c4ncnc(C5CC5)c34)c(F)n2)cn1 [Compound P-4029, (4-Cyclopropyl-7H-pyrrolo[2,3-d]pyrimidin-5-yl)-[6-(6-ethyl-pyridin-3-ylamino)-2-fluoro-pyridin-3-yl]-methanone]
  pIC50: < 5.00

## Cc1ccc(Nc2ccc(Cc3c[nH]c4ncnc(C5CC5)c34)c(F)n2)cn1 [Compound P-4030, [5-(4-Cyclopropyl-7H-pyrrolo[2,3-d]pyrimidin-5-ylmethyl)-6-fluoro-pyridin-2-yl]-(6-methyl-pyridin-3-yl)-amine]
  pIC50: < 5.00

## Cc1ccc(Nc2ccc(C(=O)c3c[nH]c4ncnc(C5CC5)c34)c(F)n2)cn1 [Compound P-4031, (4-Cyclopropyl-7H-pyrrolo[2,3-d]pyrimidin-5-yl)-[2-fluoro-6-(6-methyl-pyridin-3-ylamino)-pyridin-3-yl]-methanone]
  pIC50: < 5.00

## CCn1cc(Nc2ccc(Cc3c[nH]c4ncnc(C5CC5)c34)c(F)n2)cn1 [Compound P-4036, [5-(4-Cyclopropyl-7H-pyrrolo[2,3-d]pyrimidin-5-ylmethyl)-6-fluoro-pyridin-2-yl]-(1-ethyl-1H-pyrazol-4-yl)-amine]
  pIC50: 5.00 to 5.30

## CCn1cc(Nc2ccc(C(=O)c3c[nH]c4ncnc(C5CC5)c34)c(F)n2)cn1 [Compound P-4037, (4-Cyclopropyl-7H-pyrrolo[2,3-d]pyrimidin-5-yl)-[6-(1-ethyl-1H-pyrazol-4-ylamino)-2-fluoro-pyridin-3-yl]-methanone]
  pIC50: 5.00 to 5.30

## Fc1nc(NC2CCC(F)(F)CC2)ccc1Cc1c[nH]c2ncnc(NCC(F)(F)F)c12 [Compound P-4128, 5-[[6-[(4,4-difluorocyclohexyl)amino]-2-fluoro-3-pyridyl]methyl]-N-(2,2,2-trifluoroethyl)-7H-pyrrolo[2,3-d]pyrimidin-4-amine]
  pIC50: < 5.00

## Fc1nc(NC2CCC(F)(F)CC2)ccc1Cc1c[nH]c2ncnc(NC3CC3)c12 [Compound P-4129, N-cyclopropyl-5-[[6-[(4,4-difluorocyclohexyl)amino]-2-fluoro-3-pyridyl]methyl]-7H-pyrrolo[2,3-d]pyrimidin-4-amine]
  pIC50: > 5.30

## Fc1nc(Nc2ccc(C3CC3)nc2)ccc1Cc1c[nH]c2ncnc(NCC(F)(F)F)c12 [Compound P-4130, 5-[[6-[(6-cyclopropyl-3-pyridyl)amino]-2-fluoro-3-pyridyl]methyl]-N-(2,2,2-trifluoroethyl)-7H-pyrrolo[2,3-d]pyrimidin-4-amine]
  pIC50: < 5.00
